Experimental data taken from patent publication US11014920B2, “Factor XIIa inhibitors” (Merck Sharp & Dohme Corp., priority 2016, dated 2021).

Biological target: purified human Factor XIIa (Homo sapiens (Human), UniProt P00748)
Assay: Factor XIIa assay
Format: biochemical
Conditions: substrate n-Acetyl-Lys-Pro-Arg-AFC 100 μM, pH 7.4, read-out: FXIIa IC50
Description: “FXIIa IC50(nm)” is Human Factor XIIa IC50 (nm).
The effectiveness of a compound of the present invention as an inhibitor of Coagulation Factor XIIa can be determined using a relevant purified serine protease, and an appropriate synthetic substrate. The rate of hydrolysis of the chromogenic or fluorogenic substrate by the relevant serine protease was measured both in the absence and presence of compounds of the present invention. Assays were conducted at room temperature or at 37° C. […] A decrease in the rate of fluorescence change in the presence of inhibitor is indicative of enzyme inhibition. Such methods are known to one skilled in the art. The results of this assay are expressed as the IC50, the inhibitor concentration causing a 50% decrease in Factor XIIa protease activity.
Factor XIIa activity determinations were made in 50 mM HEPES buffer containing 150 mM NaCl, 5 mM CaCl2, and 0.1% PEG 8000 (polyethylene glycol; JT Baker or Fisher Scientific) at pH 7.4. Determinations were made using purified human Factor XIIa at a final concentration of […] (Sekisui Diagnostics) and the synthetic substrate, n-Acetyl-Lys-Pro-Arg-AFC, TFA salt (Sigma # C6608) at a concentration of 100 μM.
Times required to achieve equilibration between enzyme and inhibitor were determined in control experiments. Initial velocities of product formation in the absence (Vo) or presence of inhibitor (Vi) were measured.

Chain of purified human Factor XIIa (P00748 373-615): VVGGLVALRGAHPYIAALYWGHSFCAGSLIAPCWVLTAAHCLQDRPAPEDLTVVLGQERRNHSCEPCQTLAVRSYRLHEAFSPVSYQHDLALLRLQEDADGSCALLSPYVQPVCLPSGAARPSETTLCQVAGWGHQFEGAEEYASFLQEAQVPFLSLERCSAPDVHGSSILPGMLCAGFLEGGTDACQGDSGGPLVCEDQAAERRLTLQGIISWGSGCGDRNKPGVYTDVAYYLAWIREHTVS
Chain of purified human Factor XIIa (P00748 20-372 partner): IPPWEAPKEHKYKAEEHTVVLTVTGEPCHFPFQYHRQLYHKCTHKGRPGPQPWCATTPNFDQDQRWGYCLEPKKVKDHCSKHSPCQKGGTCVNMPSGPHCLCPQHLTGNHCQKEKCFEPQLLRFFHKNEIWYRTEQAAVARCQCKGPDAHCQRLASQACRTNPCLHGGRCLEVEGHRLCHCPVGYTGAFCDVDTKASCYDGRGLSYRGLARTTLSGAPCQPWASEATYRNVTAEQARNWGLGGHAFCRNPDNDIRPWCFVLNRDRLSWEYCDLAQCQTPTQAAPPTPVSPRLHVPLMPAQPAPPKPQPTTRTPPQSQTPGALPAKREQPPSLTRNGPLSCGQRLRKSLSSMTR

Compound	IC50 [µM]
CC(=O)OCCCC[C@@H](NC1CCCCC1)C(=O)N1CC[C@@H](NC(=O)N2CCC3(CC2)CC3)[C@@H](C(=O)NCc2cccs2)C1 [Compound 26, (5R)-6-{(3S,4R)-4-[(6-azaspiro[2.5]oct-6-ylcarbonyl)amino]-3-[(thiophen-2-ylmethy)carbamoyl]pi-peridin-1-yl}-5-(cyclohexylamino)-6-oxohexyl acetate]	0.0659
CN(C)CCCC[C@H](C(=O)N1CC[C@@H](NC(=O)N2CCCc3ccccc32)[C@@H](C(=O)NCc2cccs2)C1)N(C)C1CCCCC1 [Compound 27, N-{(3S,4R)-1-(N~2~- cyclohexyl-N~2~,N~6~,N~6~- trimethyl-D-lysyl)-3-[(thiophen-2-ylmethyl)carbamoyl]pi-peridin-4-yl}-3,4-dihydroquinoline-1(2H)-carboxamide]	0.11
CN(C)CCCC[C@@H](NC1CCCCC1)C(=O)N1CC[C@@H](NC(=O)N2CCCc3ccccc32)[C@@H](C(=O)NCc2cccs2)C1 [Compound 28, N-{(3S,4R)-1-(N~2~- cyclohexyl-N~6~,N~6~-dimethyl-D-lysyl)-3-[(thiophen-2-ylmethyl)carbamoyl]pi-peridin-4-yl}-3,4-dihydroquinoline-1(2H)-carboxamide]	0.102
Cc1ccc(C(=O)N[C@@H]2CCN(C(=O)[C@@H](CCCCN(C)C)N(C)C3CCCCC3)C[C@@H]2C(=O)NCc2cccs2)c(F)c1 [Compound 29, (3S,4R)-1-(N~2~- cyclohexyl-N~2~,N~6~,N~6~- trimethyl-D-lysyl)-4-{[(2-fluoro-4-methyl-phenyl)carbonyl]amino}-N-(thiophen-2-ylmethyl)piperidine-3-carboxamide]	0.0376
CN(C1CCCCC1)[C@H](CCCCNS(C)(=O)=O)C(=O)N1CC[C@@H](NC(=O)N2CCC3(CC2)CC3)[C@@H](C(=O)NCc2cccs2)C1 [Compound 30, N-{(3S,4R)-1-[N~2~- cyclohexyl-N~2~- methyl-N~6~- (methylsulfonyl)-D-lysyl]-3-[(thiophen-2-ylmethyl)carbamoyl]pi-peridin-4-yl}-6-azaspiro[2.5]octane-6-carboxamide]	0.0501
CN(C)CCCC[C@@H](NC1CCC2(CC1)CCN(Cc1ccccc1)C2)C(=O)N1CC[C@@H](NC(=O)N2CCC3(CC2)CC3)[C@@H](C(=O)NCc2cccs2)C1 (stereo partly drawn) [Compound 31, N-{(3S,4R)-1-[N~2~- (2-benzyl-2-azaspiro[4.5]dec-8-yl)-N~6~,N~6~-dimethyl-D-lysyl]-3-[(thiophen-2-ylmethyl)carbamoyl]pi-peridin-4-yl}-6-azaspiro[2.5]octane-6-carboxamide]	0.0015
CN(CCCC[C@@H](NC1CCCCC1)C(=O)N1CC[C@@H](NC(=O)N2CCC3(CC2)CC3)[C@@H](C(=O)NCc2cccs2)C1)S(C)(=O)=O [Compound 32, N-{(3S,4R)-1-[N~2~- cyclohexyl-N~6~- methyl-N~6~- (methylsulfonyl)-D-lysyl]-3-[(thiophen-2-ylmethyl)carbamoyl]pi-peridin-4-yl}-6-azaspiro[2.5]octane-6-carboxamide]	0.0225
CN(C)CCCC[C@H](C(=O)N1CC[C@@H](NC(=O)N2CCC3(CC2)CC3)[C@@H](C(=O)NCc2cccs2)C1)N(C)C1CCCCC1 [Compound 33, N-{(3S,4R)-1-(N~2~- cyclohexyl-N~2~,N~6~,N~6~- trimethyl-D-lysyl)-3-[(thiophen-2-ylmethyl)carbamoyl]pi-peridin-4-yl}-6-azaspiro[2.5]octane-6-carboxamide]	0.0151
CN(C)CCCC[C@@H](NC1CCCCC1)C(=O)N1CC[C@@H](NC(=O)N2CCC3(CC2)CC3)[C@@H](C(=O)NCc2cccs2)C1 [Compound 34, N-{(3S,4R)-1-(N~2~- cyclohexyl-N~6~,N~6~-dimethyl-D-lysyl)-3-[(thiophen-2-ylmethyl)carbamoyl]pi-peridin-4-yl}-6-azaspiro[2.5]octane-6-carboxamide]	0.0057
CS(=O)(=O)N(CCCC[C@@H](NC1CCCCC1)C(=O)N1CC[C@@H](NC(=O)N2CCC3(CC2)CC3)[C@@H](C(=O)NCc2cccs2)C1)CC(F)(F)F [Compound 35, N-{(3S,4R)-1-[N~2~- cyclohexyl-N~6~- (methylsulfonyl)-N~6~- (2,2,2-trifluoroethyl)-D-lysyl]-3-[(thiophen-2-ylmethyl)carbamoyl]pi-peridin-4-yl}-6-azaspiro[2.5]octane-6-carboxamide]	0.0195
O=C(NCc1cccs1)[C@H]1CN(C(=O)[C@@H](CC2CCCCC2)NC2CCCCC2)CC[C@H]1NC(=O)N1CCCC2(CCNC2=O)C1 (stereo partly drawn) [Compound 36, N-((3S,4R)-1-((R)-3-cyclohexyl-2-(cyclohexylamino)pro-panoyl)-3-((thiophen-2-ylmethyl)carbamoyl)pi-peridin-4-yl)-1-oxo-2,7-diazaspiro[4.5]decane-7-carboxamide]	0.428
